In patent US20070191406A1, “Heterocyclic antiviral compounds” (Roche Palo Alto LLC, priority 2006, published 2007) one finds IC50 data, which are given here for five compounds.

pIC50: −log10 of the molar value. Where a name gives a salt, the structure may show the parent alone.

T1 sequence (P51681 whole entry): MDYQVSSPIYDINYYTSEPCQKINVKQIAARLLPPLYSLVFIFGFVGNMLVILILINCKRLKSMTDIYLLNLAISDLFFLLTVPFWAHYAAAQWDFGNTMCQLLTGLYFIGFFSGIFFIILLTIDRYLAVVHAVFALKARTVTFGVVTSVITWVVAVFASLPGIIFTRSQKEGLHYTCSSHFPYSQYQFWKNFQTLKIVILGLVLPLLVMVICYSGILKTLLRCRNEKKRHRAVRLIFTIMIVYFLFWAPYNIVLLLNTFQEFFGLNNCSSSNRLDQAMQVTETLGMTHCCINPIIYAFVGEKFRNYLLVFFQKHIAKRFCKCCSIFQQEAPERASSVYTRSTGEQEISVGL

The test concerns the target T1, CCR5 (Homo sapiens, UniProt P51681).
T1 construct: host or cells: CEM-NKr-CCR5-Luc
The test is described as follows: CCR5-Mediated CCF Assay. It is filed as cell-based. The following applies: Hela-R5 cells (gp160 from R5-tropic virus, HIV-1 Tat) co-cultured 24 hrs with CEM-NKr-CCR5-Luc cells; luciferase readout. On the procedure: CCF assay was performed as described before (C. Ji, J. Zhang, N. Cammack and S. Sankuratri, J. Biomol. Screen. 2006 11(6):652-663). Hela-R5 cells (express gp160 from R5-tropic virus and HIV-1 Tat) were plated in 384 well white culture plates (BD Bioscience, Palo Alto, Calif.) at 7.5×10^3 cells per well in phenol red-free Dulbecco's Modified Eagle Medium (DMEM) supplemented with 10% FBS, 1× Pen-Strep, 300 μg/mL G418, 100 μg/mL hygromycin, and 1 μg/mL Doxycycline (Dox) (BD Bioscience, Palo Alto, Calif.), using Multimek (Beckman, Fullerton, Calif.) and incubated at 37° C. overnight to induce the expression of gp160. Ten μL diluted compounds in medium containing 5% DMSO were added to the cells, followed by the addition of CEM-NKr-CCR5-Luc (obtained from NIH AIDS Research & Reference Reagents Program) that expresses CD4 and CCR5 and carries a HIV-2 long terminal repeat (LTR)-driven luciferase reporter gene at 1.5×10^4 cells/15 μL/well and incubated for 24 hrs. At the end of co-culture, 15 μL of Steady-Glo luciferase substrate was added into each well, and the cultures were sealed and gently shaken for 45 min. The luciferase activity were measured for 10 sec per well as luminescence by using 16-channel TopCount NXT (PerkinElmer, Shelton, Conn.) with 10 min dark adaptation and the readout is count per second (CPS). For the drug interaction experiments, small molecule compounds or antibodies were serially diluted in serum-free and phenol red-free RPMI containing 5% DMSO (CalBiochem, La Jolla, Calif.) and 1× Pen-Strep. Five μL each of the two diluted compound or mAb to be tested for drug-drug interactions were added to the Hela-R5 cells right before the addition of target cells.
With `Cc1ccc(N(CCCN2CC3CN(C(=O)c4c(C)cccc4C)CC3C2)C(=O)[C@@H]2CC[C@H](C(=O)O)C2)cc1Cl` (stereo partly drawn) [I-4, (1S,3R)-3-((3-Chloro-4-methyl-phenyl)-{3-[5-(2,6-dimethyl-benzoyl)-hexahydro-pyrrolo[3,4-c]pyrrol-2-yl]-propyl}-carbamoyl)-cyclopentanecarboxylic acid, trifluoro-acetate salt], the pIC50 – broadly, −log10 of the IC50, conventionally taken in molar units – is 8.01.

On to `Cc1ccnc(C)c1C(=O)N1CC2CN(CC[C@H](NC(=O)C3CCC(=O)C3)c3cccc(F)c3)CC2C1` (stereo partly drawn) [I-23, 3-Oxo-cyclopentanecarboxylic acid [(S)-3-[5-(2,4-dimethyl-pyridine-3-carbonyl)-hexahydro-pyrrolo[3,4-c]pyrrol-2-yl]-1-(3-fluoro-phenyl)-propyl]-amide], for which the pIC50 is 8.13.

Take `Cc1ncnc(C)c1C(=O)N1CC2CN(CC[C@H](NC(=O)C3CCCC(=O)C3)c3cccc(F)c3)CC2C1` (stereo partly drawn) [I-24, 3-Oxo-cyclohexanecarboxylic acid [(S)-3-[5-(4,6-dimethyl-pyrimidine-5-carbonyl)-hexahydro-pyrrolo[3,4-c]pyrrol-2-yl]-1-(3-fluoro-phenyl)-propyl]-amide]: the negative logarithm of the IC50 (pIC50) is 8.19.

With `COC(=O)[C@H]1CC[C@@H](C(=O)N(CCCN2C[C@@H]3CN(C(=O)c4c(C)ncnc4C)C[C@@H]3C2)c2ccc(C)c(Cl)c2)CC1` [I-31], the negative-log IC50 (pIC50) is 8.46.

The compound `Cc1cccc(C)c1C(=O)N1CC2CN(CC[C@H](NC(=O)C3CCCC3C(=O)O)c3ccccc3)CC2C1` (stereo partly drawn) [I-33, 2-{(S)-3-[5-(2,6-Dimethyl-benzoyl)-hexahydro-pyrrolo[3,4-c]pyrrol-2-yl]-1-phenyl-propylcarbamoyl}-cyclopentanecarboxylic acid] showed a pIC50 of 8.77.
